# Reference: ChEMBL document CHEMBL1148363, “New, non-adenosine, high-potency agonists for the human adenosine A2B receptor with an improved selectivity profile compared to the reference agonist N-ethylcarboxamidoadenosine” (J Med Chem, 2004)
# Columns and labels:
# [1] = target: T1, Adenosine receptor A2b (Homo sapiens) (UniProt P29275); experiment: Stimulation of human adenosine A2B receptor in production of cAMP in CHO cells; format: functional, cell-based
# T1 sequence (whole entry): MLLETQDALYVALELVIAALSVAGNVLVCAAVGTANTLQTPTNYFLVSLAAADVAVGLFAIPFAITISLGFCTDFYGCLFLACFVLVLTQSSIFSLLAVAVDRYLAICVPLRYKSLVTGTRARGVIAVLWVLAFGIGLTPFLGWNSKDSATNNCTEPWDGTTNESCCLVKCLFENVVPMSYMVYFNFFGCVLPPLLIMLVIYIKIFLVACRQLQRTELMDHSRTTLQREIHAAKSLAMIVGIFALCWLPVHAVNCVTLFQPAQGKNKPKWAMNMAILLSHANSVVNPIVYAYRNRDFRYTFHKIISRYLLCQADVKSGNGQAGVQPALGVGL
# [2] = target: T2, Adenosine receptor A3 (Homo sapiens) (UniProt P0DMS8); experiment: Inhibition of human adenosine A3 receptor in production of cAMP in CHO cells; format: functional, cell-based
# T2 sequence (whole entry): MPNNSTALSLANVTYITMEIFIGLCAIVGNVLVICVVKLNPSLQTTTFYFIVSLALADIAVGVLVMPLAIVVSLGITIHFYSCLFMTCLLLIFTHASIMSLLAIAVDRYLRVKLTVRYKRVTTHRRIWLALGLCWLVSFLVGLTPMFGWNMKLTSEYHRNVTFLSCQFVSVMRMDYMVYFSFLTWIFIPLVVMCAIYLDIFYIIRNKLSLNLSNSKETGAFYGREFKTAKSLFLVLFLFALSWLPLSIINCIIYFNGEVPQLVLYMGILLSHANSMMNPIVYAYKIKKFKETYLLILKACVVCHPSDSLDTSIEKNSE
# Adenosine receptor A1 = target: T3, Adenosine receptor A1 (Homo sapiens, UniProt P30542); experiment: Binding affinity against human adenosine A1 receptor expressed in CHO cells using [3H]DPCPX; format: cell-based
# T3 sequence (P30542 whole entry): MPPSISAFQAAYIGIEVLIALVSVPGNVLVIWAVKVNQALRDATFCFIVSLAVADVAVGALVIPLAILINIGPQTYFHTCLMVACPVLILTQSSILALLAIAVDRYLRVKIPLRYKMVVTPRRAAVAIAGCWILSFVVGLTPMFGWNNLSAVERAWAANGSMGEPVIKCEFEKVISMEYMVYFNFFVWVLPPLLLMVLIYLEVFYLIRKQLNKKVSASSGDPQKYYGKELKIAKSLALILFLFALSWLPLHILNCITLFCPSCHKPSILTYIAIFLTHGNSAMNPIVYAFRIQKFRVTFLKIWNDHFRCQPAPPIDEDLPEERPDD
# Adenosine receptor A2a = Adenosine receptor A2a (Homo sapiens, UniProt P29274); experiment: biochemical
# Description: Binding affinity against human adenosine A2A receptor expressed in HEK293 cells using [3H]ZM-241385
# [3] = target: T4, Adenosine receptor A1 (Homo sapiens) (UniProt P30542); experiment: Inhibition of human adenosine A1 receptor in production of cAMP in CHO cells; format: functional, cell-based
# T4 sequence (whole entry): T3 sequence (P30542 whole entry)
# Adenosine receptor A3 = target: T5, Adenosine receptor A3 (Homo sapiens, UniProt P0DMS8); experiment: Binding affinity against human adenosine A3 receptor expressed on HEK293 cells using [125I]I-AB-MECA; format: cell-based
# T5 sequence (P0DMS8 whole entry): T2 sequence (whole entry)
# Adenosine receptor A2b = target: T6, Adenosine receptor A2b (Homo sapiens, UniProt P29275)
# T6 sequence (P29275 whole entry): T1 sequence (whole entry)
# Description: Agonistic activity against human adenosine A2B receptor expressed in CHO cells
# CHO = experiment: cells; details: Cricetulus griseus, read-out: pA2 (converted)
# Adenosine receptor A2a, sequence (P29274 whole entry): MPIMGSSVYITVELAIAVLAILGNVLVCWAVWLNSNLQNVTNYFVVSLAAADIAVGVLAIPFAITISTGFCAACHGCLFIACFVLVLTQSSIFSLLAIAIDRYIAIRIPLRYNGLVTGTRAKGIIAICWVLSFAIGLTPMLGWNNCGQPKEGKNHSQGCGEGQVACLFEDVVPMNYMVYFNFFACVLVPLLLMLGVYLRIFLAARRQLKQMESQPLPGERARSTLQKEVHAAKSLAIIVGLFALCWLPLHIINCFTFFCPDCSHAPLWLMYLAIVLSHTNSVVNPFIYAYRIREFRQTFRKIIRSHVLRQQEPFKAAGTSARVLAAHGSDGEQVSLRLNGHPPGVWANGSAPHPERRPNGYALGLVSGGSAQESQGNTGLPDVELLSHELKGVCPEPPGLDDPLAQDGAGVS
Structure (SMILES),Efficacy [1] [%],Efficacy [2] [%],Efficacy [3] [%],Ki (Adenosine receptor A3) [nM],Ki (Adenosine receptor A1) [nM],Ki (Adenosine receptor A2a) [nM],EC50 (Adenosine receptor A2b) [nM],Kb (CHO) [nM]
COc1ccc(-c2c(C#N)c(N)nc(SCc3ncc[nH]3)c2C#N)cc1,33,73,46,,7,214,9,
N#Cc1c(N)nc(SCc2ncc[nH]2)c(C#N)c1-c1cccc(O)c1,92,95,112,104,4.4,21,10,
COc1cccc(-c2c(C#N)c(N)nc(SCc3ncc[nH]3)c2C#N)c1,68,39,80,74,2,105,34,
Nc1nc2ccc(Cl)cc2c2nc(-c3ccco3)nn12 [CGS-15943],,,,,,,,5.01

# Now from value to compound, other results behind:
Efficacy [1] [%],Efficacy [2] [%],Efficacy [3] [%],Ki (Adenosine receptor A3) [nM],Structure (SMILES),Ki (Adenosine receptor A1) [nM],Ki (Adenosine receptor A2a) [nM],EC50 (Adenosine receptor A2b) [nM],Kb (CHO) [nM]
74,23,103,538,N#Cc1c(N)nc(SCc2ncc[nH]2)c(C#N)c1-c1ccc(O)cc1,2.6,28,12,
81,84,109,,N#Cc1c(N)nc(SCc2ncc[nH]2)c(C#N)c1-c1ccccc1,,,,
